Measured values reported in patent US9447083B2, “N-acylhydrazone derivatives for selective T cell inhibitor and anti-lymphoid malignancy drug” (CHONG KUN DANG PHARMACEUTICAL CORP., priority 2012, dated 2016).

These molecules were tested on Jurkat T cells (assay: Pro-apoptotic activity on Jurkat T cells (FITC-Annexin V / 7-AAD flow cytometry)). Conditions: Homo sapiens, 72 hours, cells stained with FITC-Annexin V and 7-AAD among total cells, read-out: Cell Apoptosis Effect to Jurkat T Cell (% in 5 μM).
Assay type: cell-based
Method: In order to investigate the effects of the prepared compounds, the apoptosis-inducing effects of the compounds on human T cell acute lymphoblastic leukemia cell line, Jurkat T cells, were evaluated in the following manner.
Jurkat T cells cultured in RPMI medium containing 10% fetal bovine serum (FBS) were collected and stained with trypan blue (Sigma). […] Then, the cells were centrifuged at 1200 rpm at room temperature for 5 minutes and re-suspended in 10% FBS-containing RPMI medium at a concentration of 1.5×10^5 cells/mL. 200 μL of the cell suspension was dispensed into each well of a flat bottom 96-well plate (Costar). Then, the cells were treated with 10 μL of the diluted compounds in RPMI medium at final concentrations of […] or 5 μM, and incubated in a 5% CO2 incubator at 37° C. for 72 hours. In a vehicle control group, the cells were treated with 10 μL of RPMI medium containing 1% of dimetylsulfoxide (DMSO, Sigma). The incubated cells were harvested, put into 5-mL FACS tubes (BD Falcon), washed with 1 mL of phosphate buffered saline (PBS), and then re-suspended in 0.1 mL of binding buffer (10 mM Hepes-NaOH, pH 7.4, 140 mM NaCl, […] CaCl2). The suspended cells were stained with fluorescein isothiocyanate (FITC)-Annexin V (BD Biosciences) and 7-amino-actinomycin D (7-AAD, e-Biosciences) at room temperature for 15 minutes. The stained cells were suspended in 0.3 mL of binding buffer and analyzed by a flow cytometer. Apoptosis was determined by the ratio (%) of cells stained with FITC-Annexin V and 7-AAD among the total cells (see Tables 10 and 11).

| SMILES | cytotoxicity at 5 µM [%] |
| --- | --- |
| Cc1cc(C)c(OCC(=O)N/N=C/c2ccc3cc[nH]c3c2)c(-c2ccncc2)c1 [Compound 217, (E)-N′-((1H-indol-6-yl)methylene)-2-(2,4-dimethyl-6-(pyridin-4-yl)phenoxy)acetohydrazide] | 100 |
| Cc1cc(C)c(OCC(=O)N/N=C/c2cccc3c2ccn3CCO)c(C)c1 [Compound 180, (E)-N′-((1-(2-hydroxyethyl)-1H-indol-4-yl)methylene)-2-(mesityloxy)acetohydrazide] | 90 |
| CC(=O)N(/N=C/c1ccc2cc[nH]c2c1)C(=O)COc1c(C)cc(C)cc1C [Compound 243, (E)-N′-((1H-indol-6-yl)methylene)-N-acetyl-2-(mesityloxy)acetohydrazide] | 100 |
| Cc1cc(C)c(OCC(=O)N(COC(=O)c2ccc(CN3CCOCC3)cc2)/N=C/c2cccc3[nH]ccc23)c(C)c1 [Compound 245, (E)-(2-((1H-indol-4-yl)methylene)-1-(2-(mesityloxy)acetyl)hydrazinyl)methyl 4-(morpholinomethyl)benzoate] | 100 |
| Cc1cccc(C)c1OCC(=O)N/N=C/c1cccc2[nH]ccc12 [Compound 118, (E)-N′-((1H-indol-4-yl)methylene)-2-(2,6-dimethylphenoxy)acetohydrazide] | 100 |
| Cc1cc(C)c(OCC(=O)N(CCN2CCCC2)/N=C/c2ccc3cc[nH]c3c2)c(C)c1 [Compound 201] | 100 |
| Cc1cc(C)c(OCC(=O)N(COC(=O)CN(C)C)/N=C/c2cccc3[nH]ccc23)c(C)c1 [Compound 238, (E)-(2-((1H-indol-4-yl)methylene)-1-(2-(mesityloxy)acetyl)hydrazinyl)methyl 2-(dimethylamino)acetate] | 100 |
| O=C(COc1ccccc1C(F)(F)F)N/N=C/c1cccc2[nH]ccc12 [Compound 192, (E)-N′-((1H-indol-4-yl)methylene)-2-(2-(trifluoromethyl)phenoxy)acetohydrazide] | 90 |
| CC(C)c1cccc(C(C)C)c1OCC(=O)N/N=C/c1cccc2[nH]ccc12 [Compound 121, (E)-N′-((1H-indol-4-yl)methylene)-2-(2,6-diisopropylphenoxy)acetohydrazide] | 100 |
| Cc1cc(C)c(OCC(=O)N/N=C/c2ccc3cc[nH]c3c2)c(-c2ccoc2)c1 [Compound 218, (E)-N′-((1H-indol-6-yl)methylene)-2-(2-(furan-3-yl)-4,6-dimethylphenoxy)acetohydrazide] | 100 |
| Cc1ccccc1OCC(=O)N/N=C/c1ccc2[nH]cnc2c1 [Compound 100] | 90 |
| Cc1cc(C)c(OCC(=O)N(CO)/N=C/c2ccc3cc[nH]c3c2)c(C)c1 [Compound 233, (E)-N′-((1H-indol-6-yl)methylene)-N-(hydroxymethyl)-2-(mesityloxy)acetohydrazide] | 100 |
| Cc1cc(CO)cc(C)c1OCC(=O)N/N=C/c1ccc2cc[nH]c2c1 [Compound 228, (E)-N′-((1H-indol-6-yl)methylene)-2-(4-(hydroxymethyl)-2,6-dimethylphenoxy)acetohydrazide] | 100 |
| Cc1cc(Br)cc(C)c1OCC(=O)N/N=C/c1ccc2[nH]ccc2c1 [Compound 092, (E)-N′-((1H-indol-5-yl)methylene)-2-(4-bromo-2,6-dimethylphenoxy)acetohydrazide] | 100 |
| Cc1cc(C)c(OCC(=O)N(COC(=O)CN(C)C)/N=C/c2ccc3cc[nH]c3c2)c(C)c1 [Compound 236, (E)-(2-((1H-indol-6-yl)methylene)-1-(2-(mesityloxy)acetyl)hydrazinyl)methyl 2-(dimethylamino)acetate] | 100 |
| Cc1cc(-c2cnc(N)nc2)cc(C)c1OCC(=O)N/N=C/c1ccc2cc[nH]c2c1 [Compound 152, (E)-N′-((1H-indol-6-yl)methylene)-2-(4-(2-aminopyrimidin-5-yl)-2,6-dimethylphenoxy)acetohydrazide] | 90 |
| Cc1ncccc1OCC(=O)N/N=C/c1cccc2[nH]ccc12 [Compound 187, (E)-N′-((1H-indol-4-yl)methylene)-2-((2-methylpyridin-3-yl)oxy)acetohydrazide] | 100 |
| Cc1ccccc1OCC(=O)N/N=C/c1ccc2c(ccn2CN(C)C)c1 [Compound 072] | 95 |

Same assay, conditions: Homo sapiens, 72 hours, cells stained with FITC-Annexin V and 7-AAD among total cells, read-out: Jurkat T Cell Apoptosis (% in 5 μM)

| SMILES | cytotoxicity at 5 µM [%] |
| --- | --- |
| Cc1cc(OCC(=O)N/N=C/c2cccc3[nH]ccc23)nc(C)n1 [Compound 301, (E)-N′-((1H-indol-4-yl)methylene)-2-(2,6-dimethylpyrimidin-4-yloxy)acetohydrazide] | 100 |
| Cc1cccc(-c2ccoc2)c1OCC(=O)N/N=C/c1cccc2[nH]ccc12 [Compound 314, (E)-N′-((1H-indol-4-yl)methylene)-2-(2-(furan-3-yl)-6-methylphenoxy)acetohydrazide] | 100 |
| Cc1cc(C)c(OCC(=O)N(COC(=O)c2ccc(CN3CCOCC3)cc2)/N=C/c2ccc3cc[nH]c3c2)c(C)c1 [Compound 272, (E)-(2-((1H-indol-6-yl)methylene)-1-(2-(mesityloxy)acetyl)hydrazinyl)methyl 4-(morpholinomethyl)benzoate] | 100 |
| O=C(COc1cccc(-c2ccco2)c1)N/N=C/c1cccc2[nH]ccc12 [Compound 356, (E)-N′-((1H-indol-4-yl)methylene)-2-(3-(furan-2-yl)phenoxy)acetohydrazide] | 90 |
| CCc1nc(C)ccc1OCC(=O)N/N=C/c1ccc2cc[nH]c2c1 [Compound 293, (E)-N′-((1H-indol-6-yl)methylene)-2-(2-ethyl-6-methylpyridin-3-yloxy)acetohydrazide] | 100 |
| COc1ccc(OCC(=O)N/N=C/c2cccc3[nH]ccc23)c(C(C)(C)C)c1 [Compound 302, (E)-N′-((1H-indol-4-yl)methylene)-2-(2-tert-butyl-4-methoxyphenoxy)acetohydrazide] | 100 |
| Cc1cccc(C2CCOC2)c1OCC(=O)N/N=C/c1ccc2cc[nH]c2c1 (stereo not drawn) [Compound 311, (E)-N′-((1H-indol-6-yl)methylene)-2-(2-methyl-6-(tetrahydrofuran-3-yl)phenoxy)acetohydrazide] | 100 |
| Cc1ncccc1OCC(=O)N/N=C/c1ccc2cc[nH]c2c1 [Compound 304, (E)-N′-((1H-indol-6-yl)methylene)-2-((2-methylpyridin-3-yl)oxy)acetohydrazide] | 90 |
| Cc1cc(C)c(OCC(=O)N/N=C/c2cccc3[nH]ccc23)c(-c2ccoc2)c1 [Compound 333, (E)-N′-((1H-indol-4-yl)methylene)-2-(2-(furan-3-yl)-4,6-dimethylphenoxy)acetohydrazide] | 100 |
| Cc1cc(C)c(OCC(=O)N/N=C/c2cccc3c2ccn3S(=O)(=O)c2ccccc2)c(C)c1 [Compound 280, (E)-2-(mesityloxy)-N′-((1-(phenylsulfonyl)-1H-indol-4-yl)methylene)acetohydrazide] | 100 |
| Cc1cc(C)c(OCC(=O)N/N=C/c2ccc3cc[nH]c3c2)c(-c2ccco2)c1 [Compound 318] | 100 |
| Cc1cc(C)c(OCC(=O)N/N=C/c2cccc3[nH]ccc23)c(Br)c1 [Compound 259, (E)-N′-((1H-indol-4-yl)methylene)-2-(2-bromo-4,6-dimethylphenoxy)acetohydrazide] | 100 |
